Experimental findings from a melting point compilation (Tetko et al.; mined from patent text by program, amines drawn as free bases though some values may be those of a salt) are described below.

`CCNc1nc(Cl)cc(NS(=O)(=O)c2ccc(N)cc2)n1`: the melting point was in the range of 172 to 173 °C. As to `O=C1NC(=S)SC1=Cc1cccc(OCc2ccc(C(=O)c3ccccc3)cc2)c1`, the melting point lay within 212 to 214 °C. In turn, `O=C1COCCOCC(=O)NCCOCCOCCOCCN1` had a melting point of 90 to 91 °C. `CC(N)Cc1ccc(C(N)=O)s1` (racemic) came in with a melting point of 91 to 92 °C. In the case of `CC1=C(c2ccccc2)C(=O)N(C(C)(C)c2cccc(Cl)c2)CC1` it was 117 to 118 °C. The value for `CC(=O)c1cccc(-c2cncc(OC3SCC(O)C(O)C3O)c2)c1` (stereo not given) was 159 to 163 °C. In the case of `COc1ccc(C(=O)[C@H](C)NC(=O)OCc2ccccc2)cc1` it was 46 to 48 °C; in that of `CC[C@H](COC)n1cc(Cl)nc(N2CCc3cc(OC)cc(C)c32)c1=O`, 62 to 64 °C; in that of `O=C1c2ccccc2C(=O)N1CC(O)Cn1ccnc1[N+](=O)[O-]` (stereo not given), 213 to 214 °C.

`O=C1N=C(N2CCOCC2)SC1Cc1cccc(-c2ccc(O)c(C3CCCCC3)c2)c1` (stereo not given) yielded a melting point of 100 to 108 °C. The value for `C=C1c2ccccc2CC(=NO)Cc2ccccc21` was 119 to 123 °C; that for `O=C(O)CC1=C(Cc2ccc3ccccc3c2)C(=O)CCC1` was 78 to 80 °C. For `Cc1ccc2c(c1)C(=O)c1ccccc1CC2`, the melting point was 34 to 35 °C.

In turn, `Cc1c(O)ncnc1C(F)F` returned a melting point of 166 to 167 °C. `N#CC1(c2ccccc2)CCCCC1`: the melting point was 120 to 122 °C. In the case of `CCOC(=O)c1cn2c3c(ccc(C)c3c1=O)CCC2C` (stereo not given), the melting point lay within 106 to 108 °C. `O=C(O)C(O)N1C(=O)CCN1c1cccc(F)c1` (stereo not given) registered a melting point of 115 to 116 °C.

`NC(=O)c1ncn2c(-c3ccccc3)ccnc12`: the melting point is 226 to 228 °C.

In the case of `CCCOC(=O)c1ccc(OCCCCCCCc2cc(C)no2)cc1`, the melting point is 54 °C. The value for `O=C(C=Cc1ccc(O)c([N+](=O)[O-])c1)N(c1ccccc1)c1ccccc1` was 197 to 198 °C; that for `S=c1cc(N2CCOCC2)ss1` was 60 °C. For the compound `Cc1nc(N2CCN(Cc3ccc(OC(F)F)cc3)C2=O)sc1C(=O)NCc1cccnc1`, the melting point lay within 166 to 167 °C. Turning to `O=C1c2ccccc2C(=O)N1COc1ccc([N+](=O)[O-])cc1`, the melting point was 145 to 148 °C. Compound `CC(=O)Nc1cccc(-c2cnc3[nH]cc(C(=O)C(C)(C)C)c3n2)c1` registered a melting point of 249 to 250 °C. The value for `Cc1cc(COc2nn3c(-c4ccccc4)nnc3cc2-c2ccccc2)no1` was 180 °C. Compound `CN(C)S(=O)(=O)n1c(N)nc2ccc(C(=CCl)c3ccccc3)cc21` came in with a melting point of 207 to 215 °C. On to `C[C@@H]1CN(c2c(F)cc3c(=O)c(C(=O)O)cn(C4CC4)c3c2F)C[C@H]1N` (relative stereo), for which the melting point was in the range of 257 to 260 °C. In the case of `COC(=O)c1ccc(-c2ccc(Cl)s2)nc1` it was 122 to 124 °C; in that of `CCOc1cccc(C(C)=O)n1`, 36 to 37 °C; in that of `O=C1NCC(c2ccc3[nH]c(-c4ccncc4)cc3c2)=NN1`, 313 to 316 °C.

In turn, `N#Cc1cc(C[C@H](N)C(=O)O)ccc1O` yielded a melting point greater than 250 °C. For the compound `Cc1cc(CCCCCOc2c(Cl)cc(-c3noc(C(F)(F)F)n3)cc2Cl)on1`, the melting point was in the range of 42 to 43 °C.

As to `CCOC(=O)NS(=O)(=O)c1c(C(=O)OCC)c(Cl)nn1C`, the melting point lay within 82 to 85 °C. `COc1cc(-c2nc3ccc(OCCN(C(C)C)C(C)C)cc3n2Cc2ccccc2C(F)(F)F)cc(OC)c1OC` came in with a melting point of 184 °C. In the case of `CN1CCC(Cc2nc3ccccc3n2Cc2ccc(CO)o2)CC1` it was 158 °C.

Take `CN(C)C1(c2ccccc2)CCC(CNC(=O)N2CCC(c3c[nH]c4ccc(F)cc34)CC2)CC1` (stereo not given): the melting point is 95 to 98 °C. As for `CC(C)CCCC(C)C1CCC2C3CC=C4CC(O)CC(O)C4(C)C3CCC12C` (stereo not given), the melting point lay in the range of 158 to 161 °C. Consider `CCC#CCCOc1ccc(/C=C/C(=O)Nc2ccccc2C(=O)O)cc1OC`, for which the melting point fell in the range of 165 to 166 °C. On to `CC(C)CC(C(=O)O)c1cc(Cl)c(-c2ccc(Cl)c(Cl)c2)c(OCC2CC2)c1` (stereo not given), for which the melting point lay within 118 to 119 °C. The value for `CC(C(C#N)C(=O)O)C(C)(C)C` (stereo not given) was 68 to 78 °C; that for `C=CCc1oc2c(OC)cccc2c1CC(=O)OC` was 65 to 66 °C.

Consider `CC(=NC#N)NC1=CC(C)(C)Oc2ccc(C#N)cc21`, for which the melting point is 205 to 206 °C. The value for `CC(C)NC(=O)c1nc(-c2ccc(F)cc2)c(-c2ccc(=O)n(C(C)C)n2)s1` was 122 to 124 °C; that for `N#Cc1cc2c(cc1F)OCC21C(=O)N(Cc2ccccc2C(F)(F)F)c2ccccc21` (stereo not given) was 193 to 195 °C; that for `C=CCNC(=Nc1ccc(-c2c[nH]cn2)cc1)S(=O)(=O)O` was 183 to 184 °C. In the case of `CS(=O)(=O)c1ccc(C2=C(c3ccc(F)cc3)C(=O)OC2)cc1` it was 166 to 167 °C. In turn, `CN(C1=CC(=O)c2nccnc2C1=O)c1ccccc1` displayed a melting point of 207 to 208 °C. In the case of `O=C(CO)c1ccc(F)c(F)c1Nc1ccc(I)cc1F`, the melting point was 128 °C. In turn, `CC(C)(C)NCC(O)COc1cccc(NC(N)=O)c1C(N)=O` (stereo not given) had a melting point of 189 to 191 °C.

Compound `CC(C)(C)C(=O)OCN1C(=O)CC2(C1=O)C(=O)N(Cc1ccc(Cl)c(Cl)c1)c1ccccc12` (stereo not given) registered a melting point of 134 to 135 °C. Compound `COc1cccc2c(=O)c(-c3cccc(C(F)(F)F)c3F)nn(CCCNS(C)(=O)=O)c12` showed a melting point of 62 to 64 °C. `Cn1cc(C2=C(c3c4n(c5ccccc35)CCC(CO)CC4)C(=O)NC2=O)c2ccccc21` (stereo not given): the melting point is 109 to 111 °C. In turn, `COC(=O)CCc1cc([N+](=O)[O-])c(O)c(C(C)(C)C)c1` came in with a melting point of 41 to 42 °C. In turn, `O=[N+]([O-])c1ccc(N2CCC2)nc1` showed a melting point of 132 to 134 °C.

In the case of `COC(=O)c1ccc(CCC(O)CCc2ccc(C(=O)OC)cc2)cc1`, the melting point was 129 to 130 °C. For the compound `CCCCCc1cc2c(nc(O)n2CCCNS(C)(=O)=O)c(N)n1`, the melting point was in the range of 174 to 176 °C.

`COc1ccc(N2CCN(c3cc4c(c(C)c3C)OC(C)(C)C4)CC2)cc1` gave a melting point of 180 to 182 °C. Turning to `CSc1ncnn1C[C@]1(c2cccc(F)c2)O[C@@H]1c1ccccc1Cl` (relative stereo), the melting point amounted to 98 °C. `NS(=O)(=O)c1cc(S(N)(=O)=O)c(C(Cl)=C(Cl)Cl)cc1NCc1ccco1`: the melting point is 155 °C. The value for `Nc1c2c(nc3ccccc13)CCCC2OCCBr` (stereo not given) was 164 °C. In turn, `CC(C)CCOc1ccc(C(=O)c2c(N)sc3c2CCN(Cc2ccccc2)C3)cc1` came in with a melting point of 106 to 107 °C. With `COc1ccccc1N1CCN(CCn2c(=O)c3cscc3n(C(C)=O)c2=O)CC1`, the melting point lay within 128 to 129 °C.

For `CCC(=O)c1ccc(OC)c(O)c1`, the melting point was 91 to 92 °C.

As for `CCS(=O)(=O)Nc1ccc(-c2cccc(-c3nc(C(C)C)[nH]c3-c3cccc(C)n3)c2)cc1`, the melting point is 123 to 135 °C. `CCOC(=O)NN=C(c1ccc(Cl)cc1)c1ccc(OC(=O)CC)cc1` returned a melting point of 120 to 146 °C.

The compound `CCCOC(=O)C(C)Oc1ccc(Oc2cnc3cc(Cl)ccc3n2)cc1F` (stereo not given) gave a melting point of 70 to 72 °C. Compound `CC1=C(c2ccc(O)cc2)C(=O)c2c(O)cc(O)cc21` came in with a melting point of 126 to 129 °C. The compound `Cn1c(=O)cn[nH]c1=O` displayed a melting point of 173 °C. In the case of `O=C1OC(Cl)(C(=O)OCc2ccc([N+](=O)[O-])cc2)c2ccccc21` (stereo not given), the melting point is 132 to 134 °C. Regarding `COc1ccc(NC(=O)c2ccc(F)c(F)c2)cc1NS(=O)(=O)c1ccc(N)cc1`, the melting point was 229 to 231 °C.

The compound `O=C(O)c1cn(CCF)c2c(F)c(F)c(F)cc2c1=O` yielded a melting point of 208 to 210 °C. The value for `Cc1nc2cccc(S(=O)(=O)n3c(COC(C)(C)C(=O)O)cc4cc(Cl)ccc43)c2s1` was 128 to 130 °C.

Take `Cc1c(F)c(N2CCNC(C)C2)c(F)c2c1c(=O)c(C(=O)O)cn2C1CC1` (stereo not given): the melting point lay in the range of 187 to 188 °C. In the case of `O=C(O)c1ccc(-c2nc(-c3ccc(OC(F)F)cc3)co2)cc1` it was 261 to 262 °C. As for `COc1cc(N)c(Cl)cc1-c1noc(C2CCN(CC3CCCO3)CC2)n1` (stereo not given), the melting point turned out to be 148 °C. `CNC(=O)c1ccc(C)c(-n2c(C)cc(OCc3ccc(F)cc3CNC(=O)Nc3cc(C(C)(C)C)nn3-c3ccc(O)c(Cl)c3)c(Cl)c2=O)c1` came in with a melting point of 177 to 180 °C.

Regarding `N#Cc1c(O)ccc2ccccc12`, the melting point is 160 to 161 °C.

In turn, `Ic1c[nH]c2ncccc12` yielded a melting point of 201 to 204 °C.

On to `CC1(C)OC(=O)c2c(cccc2OS(=O)(=O)C(F)(F)F)O1`, for which the melting point was found to be 115 °C. The compound `CCCOCCN(C)c1ccc(-c2ccc3c(c2)C=C(C(=O)Nc2ccc(CN(C)C4CCOCC4)cc2)CCS3(=O)=O)cc1` had a melting point of 193 to 194 °C.

Consider `COc1cc(COc2nn(-c3ccccc3)cc2/C=C/c2nc(C)cs2)ccc1OCc1nc(-c2ccco2)oc1C`, for which the melting point is 130 to 131 °C. Consider `COC(=O)C=Cc1ccc(-n2ccn(-c3ccc(C#N)cc3)c2=O)cc1`, for which the melting point lay within 210 to 212 °C. In the case of `Cc1ncc2n1-c1ccc(C#N)cc1C(c1ccccc1F)=NC2` it was 198 to 203 °C; in that of `COc1ccc(C(=O)Nc2c(Cl)cc(C(=O)O)cc2Cl)c2cc(C(C)C)oc12`, 279 °C. The value for `O=C(O)c1cc(=O)c2cc3c(c(CC(O)CO)c2o1)CCCC3` (stereo not given) was 217 to 218 °C.

In turn, `CC(=O)CCNc1cc(C(=O)O)cc(S(N)(=O)=O)c1Oc1ccccc1` showed a melting point of 215 to 216 °C. Compound `Cc1cc2c(s1)CCCC(=O)N2` had a melting point of 133 to 135 °C. In the case of `CC(Br)c1ccc(-c2ccc(C(=O)c3ccccc3)cc2)cc1` (stereo not given), the melting point is 132 to 134 °C. Compound `CC(=O)Nc1nc2c(s1)-c1nc(N3CCCC(CNC(=O)OC(C)(C)C)C3)ncc1CC2` (stereo not given) showed a melting point of 250 to 255 °C.

Turning to `O=Cc1cccc(-c2cc3nccnc3[nH]2)c1`, the melting point fell in the range of 268 to 270 °C.

Broadly, the melting point is the temperature, or range, at which the solid turns liquid.
